Results reported in patent EP3725763A1, “MYOCARDIAL REGENERATION PROMOTING COMPOUNDS, PREPARATION METHOD THEREOF, PHARMACEUTICAL COMPOSITION, AND THEIR USE” (priority 2019, dated 2020).

experiment: MTT assay for cell viability testing; assay type: cell-based, rats; details: rat; H9C2 cells, 48 hours treatment at the concentrations of Table 3 (0.4 to 25 µg/ml); DMSO group = 100%; Figure 1
Protocol: 1.1: cell culture of H9C2 cell line
H9C2 cell line is a cardiac myoblast derived from the rats and is purchased from Food Industry Research and Development Institute, Taiwan. The culture medium is 90% (v/v) Dulbecco's modified Eagle's medium with 4 mM L-glutamine (Gibco™, Cat.12800017) adjusted to contain 4.5g/L glucose and 1.5g/L sodium bicarbonate (Sigma, Cat.S5761) and 10% (v/v) fetal bovine serum (Gibco™, Cat.10437028). Incubate at 37°C in a 5% (v/v) CO2 in air atmosphere.
1.2: MTT assay for cell viability testing
In order to find out the feasible concentration of compounds without cytotoxicity, cells was cultured to 90% confluency and cells were seeded in a 24-well plate at a concentration of 1.5*10^4 cell/well. […] After washing with PBS buffer (phosphate buffered saline), 0.5 mg/ ml of MTT (Thiazolyl Blue Tetrazolium Bromide; Sigma, Cat.M2128) was added and incubate the 24-well plate at 37°C for 4 hours. […] Then the supernatant was removed and 200 µL DMSO was added to dissolve the crystal. Mix each sample again using a pipette and read absorbance at 570 nm (the values are averages of triplicate). The value of the DMSO group is 100% to represent that the cell viability is 100%.

| SMILES | viability at 48 h |
| --- | --- |
| O=C(/C=C/c1ccccc1)OCc1ccc(O)cc1 [Compound 21] | 80 to 120% |
| O=C(O)/C=C/c1ccc(OC(=O)c2cccnc2)cc1 [Compound 30] | 80 to 120% |
| COC(=O)/C=C/c1ccc(OC(=O)Cc2cccc(Cl)c2)c(OC(=O)Cc2cccc(Cl)c2)c1 [Compound 11] | 80 to 120% |
| O=C(O)/C=C/c1ccc(NC(=O)CCCC(=O)O)cc1 [Compound 13] | 80 to 120% |
| C=CCOc1ccc(/C=C/C(=O)c2sccc2N)c(OCC=C)c1 [Compound 40] | 80 to 120% |
| O=C(O)/C=C/c1ccc(OC(=O)CCCC(=O)O)c(OC(=O)CCCC(=O)O)c1 [Compound 3] | 80 to 120% |
| COC(=O)/C=C/c1ccc(O)c(O)c1 [Compound 18] | 80 to 120% |
| O=C(O)/C=C/c1ccc(OC(=O)Cc2cccc(Cl)c2)cc1 [Compound 9] | 80 to 120% |
| Cc1ccc(/C=C/C(=O)c2sc(N)nc2C)s1 [Compound 44] | 80 to 120% |
| O=C(/C=C/c1ccc(O)c(O)c1)O[C@H](Cc1ccc(O)c(O)c1)C(=O)O [Compound 46] | 80 to 120% |
| O=C(/C=C/c1ccc2c(c1)OCO2)Nc1ccc(O)cc1 [Compound 34] | 80 to 120% |
| CC(=O)Oc1ccccc1C(=O)N(C(=O)c1ccccc1OC(C)=O)c1ccc(/C=C/C(=O)O)cc1 [Compound 15] | 80 to 120% |
| O=C(O)/C=C/c1ccc(O)cc1O [Compound 24] | 80 to 120% |
| COC(=O)/C=C/c1ccccc1 [Compound 17] | 80 to 120% |
| O=C(/C=C/c1ccccn1)c1ccccn1 [Compound 43] | 80 to 120% |
| O=C(O)/C=C/c1ccc(OC(=O)CCCC(=O)O)cc1 [Compound 1] | 80 to 120% |
| COC(=O)/C=C/c1ccc(OC(=O)c2ccccc2OC(C)=O)c(OC(=O)c2ccccc2OC(C)=O)c1 [Compound 29] | 80 to 120% |
| CC(=O)Oc1ccccc1C(=O)Oc1ccc(/C=C/C(=O)O)cc1 [Compound 7] | 80 to 120% |
| O=C(O)/C=C/c1ccsc1 [Compound 39] | 80 to 120% |

| SMILES | viability at 48 h |
| --- | --- |
| COC(=O)CCCCC(=O)Oc1ccc(/C=C/C(=O)O)cc1 [Compound 5] | 80 to 120% |
| O=C(O)/C=C/c1cccnc1 [Compound 37] | 80 to 120% |
| COC(=O)/C=C/C(=O)Nc1ccc(/C=C/C(=O)O)cc1 [Compound 14] | 80 to 120% |
| O=C(O)/C=C/c1cccs1 [Compound 38] | 80 to 120% |
| CC(=O)Oc1ccccc1C(=O)Oc1ccc(/C=C/C(=O)O)cc1O [Compound 8] | 80 to 120% |
| O=C(O)/C=C/c1ccncc1 [Compound 36] | 80 to 120% |
| CC(=O)C(=O)Oc1ccc(/C=C/C(=O)O)cc1 [Compound 27] | 80 to 120% |
| O=C(O)/C=C/c1ccc(OC(=O)CCCCC(=O)O)cc1 [Compound 4] | 80 to 120% |
| O=C(/C=C/c1ccc2c(c1)OCO2)n1cccc1 [Compound 42] | 80 to 120% |
| Nc1ccc(/C=C/C(=O)O)cc1 [Compound 31] | 80 to 120% |
| O=C(/C=C/c1ccsc1)c1ccc(O)cc1 [Compound 41] | 80 to 120% |
| CC(C)(C)OC(=O)NCCCC(=O)Oc1ccc(/C=C/C(=O)O)cc1OC(=O)CCCNC(=O)OC(C)(C)C [Compound 12] | 80 to 120% |
| O=C(O)/C=C/C(=O)Nc1ccc(/C=C/C(=O)O)cc1 [Compound 32] | 80 to 120% |
| O=C(O)/C=C/c1ccc(NC(=O)c2ccccc2O)cc1 [Compound 33] | 80 to 120% |
| CC(=O)Oc1ccc(/C=C/C(=O)O)cc1 [Compound 28] | 80 to 120% |
| O=C(O)/C=C/c1ccc(OC(=O)Cc2cccc(Cl)c2)c(OC(=O)Cc2cccc(Cl)c2)c1 [Compound 10] | 80 to 120% |
| O=C(O)/C=C/c1ccc(OC(=O)CCCC(=O)O)c(O)c1 [Compound 2] | 80 to 120% |
| Cc1ccc(/C=C/C(=O)c2cccc(NC(=O)/C=C/c3ccc4c(c3)OCO4)c2)s1 [Compound 35] | 80 to 120% |
| COC(=O)CCCCC(=O)Oc1ccc(/C=C/C(=O)O)cc1OC(=O)CCCCC(=O)OC [Compound 6] | 80 to 120% |
